Laboratory results published in patent publication US20110178119A1, “Bridged N-Bicyclic Sulfonamido Inhibitors of Gamma Secretase” (ELAN PHARMACEUTICALS, INC., priority 2005, published 2011).

These molecules were tested against T1, gamma-secretase (Homo sapiens, UniProt P49768) (assay: Gamma-secretase APP enzyme assay (cleavage of MBP-C125swe substrate, sandwich ELISA)). Conditions: partially purified extract of IMR-32 cell membranes as enzyme, 2 h at 37° C, ELISA detection of cleavage product, read-out: γAPP.
T1 construct: a partially purified extract of IMR-32 cell membranes as the gamma-secretase enzyme preparation; endogenous in cells; host or cells: IMR-32 cell membranes, partially purified extract
Type: biochemical
From the text: The gamma-secretase APP enzyme assay was designed to measure the specific proteolytic cleavage of an APP substrate (MBP-C125 Swe fusion protein) at the […] site. The assay used a partially purified extract of IMR-32 cell membranes as the gamma-secretase enzyme preparation and a recombinant fusion protein containing the C-terminal 125 amino acids of the Swedish variant of the APP (MBP-C125swe) as the substrate. This assay involved two steps beginning with the enzymatic reaction generating a cleavage product that was captured with an immobilized antibody specific for the neo-epitope […] site. The captured cleavage product was then detected in a sandwich ELISA assay with a biotinylated reporter antibody that is specific to Aβ (17-28). Streptavidin-linked alkaline phosphatase was then added that would generate a fluorescent signal proportional to the amount of cleavage product. This assay was used to discover small molecule inhibitors of gamma-secretase. Briefly, a 149 mg/ml solution of […] detergent was made with water at 42° C. and then rotated for 30 minutes at the same temperature. […] Louis, Mo.) to a concentration of 8 mg/ml. This solution containing BigCHAPS and lipid at 8 mg/ml is then diluted to 0.53 mg/ml lipid with a pre-warmed solution of Hepes and sodium chloride. This final solution containing Hepes buffer, sodium chloride, BigCHAPS detergent and lipid is used to create working solutions of both gamma-secretase (25 Units) and the MBP-C125 substrate (0.05 mg/ml). Gamma-secretase was then added to a 96-well micro-titre plate and then incubated with various concentrations of inhibitor for 30 minutes at 37° C. MBP-C125 substrate was then added to initiate the reaction that would run for two hours at 37° C. The reaction was quenched with the addition of SDS to a final concentration of 0.1% and then 100 μl of the reaction mixture was transferred to a capture ELISA plate and incubated overnight at 4° C. Detection of the cleavage product was performed using a standard sandwich ELISA assay and quantified using a six point standard curve.

Row | SMILES | IC50
1 | O=S(=O)(c1ccc(Br)cc1)N1C2CCCC1CC2 [8-(4-bromophenylsulfonyl)-8-azabicyclo[3.2.1]octane] | 2000 to 5000 nM
2 | O=S(=O)(c1ccc(Cl)cc1)N1C2CCCC1CC2 [8-(4-chlorophenylsulfonyl)-8-azabicyclo[3.2.1]octane] | 2000 to 5000 nM
3 | O=S(=O)(c1ccc(C(F)(F)F)cc1)N1C2CCCC1CCC2 [9-(4-(trifluoromethyl)phenylsulfonyl)-9-azabicyclo[3.3.1]nonane] | 2000 to 5000 nM
4 | O=S(=O)(c1ccc(Br)c(F)c1)N1C2CCCC1CCC2 [9-(4-bromo-3-fluorophenylsulfonyl)-9-azabicyclo[3.3.1]nonane] | 2000 to 5000 nM
5 | O=S(=O)(c1ccc(Br)cc1)N1C2CCCC1CCC2 [9-(4-bromophenylsulfonyl)-9-azabicyclo[3.3.1]nonane] | 1000 to 2500 nM
6 | O=C1NCC2CCCC1N2S(=O)(=O)c1ccc(Cl)cc1 (stereo not shown) [9-(4-chlorophenylsulfonyl)-3,9-diazabicyclo[3.3.1]nonan-2-one] | 2000 to 5000 nM
7 | C=C1CC2CCCC(C1)N2S(=O)(=O)c1ccc(Cl)cc1 [9-(4-chlorophenylsulfonyl)-3-methylene-9-azabicyclo[3.3.1]nonane] | < 1000 nM
8 | O=S(=O)(c1ccc(Cl)cc1)N1C2CCCC1COC2 [9-(4-chlorophenylsulfonyl)-3-oxa-9-azabicyclo[3.3.1]nonane] | 2000 to 5000 nM
9 | O=S(=O)(c1ccc(Cl)cc1)N1C2CCCC1CN(c1ccccc1)C2 [9-(4-chlorophenylsulfonyl)-3-phenyl-3,9-diazabicyclo[3.3.1]nonane] | 1000 to 2500 nM
10 | O=S(=O)(c1ccc(Cl)cc1)N1C2CCCC1CSC2 [9-(4-chlorophenylsulfonyl)-3-thia-9-azabicyclo[3.3.1]nonane] | < 1000 nM
11 | O=S(=O)(c1ccc(Cl)cc1)N1C2CCCC1CC(O)C2 (stereo not shown) [9-(4-chlorophenylsulfonyl)-9-azabicyclo[3.3.1]nonan-3-ol] | 2000 to 5000 nM
12 | O=S(=O)(c1ccc(Cl)cc1)N1C2CCCC1CC(=NO)C2 [9-(4-chlorophenylsulfonyl)-9-azabicyclo[3.3.1]nonan-3-one oxime] | 2000 to 5000 nM
13 | O=C1CC2CCCC(C1)N2S(=O)(=O)c1ccc(Cl)cc1 [9-(4-chlorophenylsulfonyl)-9-azabicyclo[3.3.1]nonan-3-one] | < 1000 nM
14 | O=S(=O)(c1ccc(Cl)cc1)N1C2CCCC1CCC2 [9-(4-chlorophenylsulfonyl)-9-azabicyclo[3.3.1]nonane] | 1000 to 2500 nM
15 | O=S(=O)(c1ccc(Br)s1)N1C2CCCC1CCC2 [9-(5-bromothiophen-2-ylsulfonyl)-9-azabicyclo[3.3.1]nonane] | 2000 to 5000 nM
16 | O=S(=O)(c1ccc(Cl)s1)N1C2CCCC1CCC2 [9-(5-chlorothiophen-2-ylsulfonyl)-9-azabicyclo[3.3.1]nonane] | 2000 to 5000 nM
17 | O=C1NC(=O)C2CCCC1N2S(=O)(=O)c1ccc(Cl)cc1 [9-[(4-chlorophenyl)sulfonyl]-3,9-diazabicyclo[3.3.1]nonane-2,4-dione] | < 1000 nM
18 | CS(=O)(=O)OC1CC2CCCC(C1)N2S(=O)(=O)c1ccc(Cl)cc1 (stereo not shown) [Methanesulfonic acid 9-(4-chloro-benzenesulfonyl)-9-aza-bicyclo[3.3.1]non-3-yl ester] | 1000 to 2500 nM
19 | CN(C(=O)OC(C)(C)C)C1CC2CCCC(C1)N2S(=O)(=O)c1ccc(Cl)cc1 (stereo not shown) [[9-(4-Chloro-benzenesulfonyl)-9-aza-bicyclo[3.3.1]non-3-yl]-methyl-carbamic acid tert-butyl ester] | < 1000 nM
